Laboratory results from patent US9340590B2 (priority 2011, dated 2016).
Positions of bridges follow the written chain, without caps; N, C: chain ends. Non-standard residues stand in square brackets, D forms with d. Residues, ends and D or L forms follow the SMILES beside them. 1Nal = N[C@@H](Cc1cccc2ccccc12)C(=O)O

Tests used:
Test in all cases: cell-based
hNav1.3 = hNav1.3 (Homo sapiens, UniProt Q9NY46); details: IonWorks Quattro, use-dependent block, hNav1.3; read-out: IWQ Use Nav1.3
hNav1.7 = hNav1.7 (Homo sapiens, UniProt Q15858); format: cell-based; details: IonWorks Quattro, use-dependent block, hNav1.7; read-out: IWQ Use Nav1.7
hNav1.5 = hNav1.5 (Homo sapiens, UniProt Q14524); details: IonWorks Quattro, use-dependent block, hNav1.5; read-out: IWQ Use Nav1.5

Sequence of hNav1.7 (Q15858 whole entry, looked up): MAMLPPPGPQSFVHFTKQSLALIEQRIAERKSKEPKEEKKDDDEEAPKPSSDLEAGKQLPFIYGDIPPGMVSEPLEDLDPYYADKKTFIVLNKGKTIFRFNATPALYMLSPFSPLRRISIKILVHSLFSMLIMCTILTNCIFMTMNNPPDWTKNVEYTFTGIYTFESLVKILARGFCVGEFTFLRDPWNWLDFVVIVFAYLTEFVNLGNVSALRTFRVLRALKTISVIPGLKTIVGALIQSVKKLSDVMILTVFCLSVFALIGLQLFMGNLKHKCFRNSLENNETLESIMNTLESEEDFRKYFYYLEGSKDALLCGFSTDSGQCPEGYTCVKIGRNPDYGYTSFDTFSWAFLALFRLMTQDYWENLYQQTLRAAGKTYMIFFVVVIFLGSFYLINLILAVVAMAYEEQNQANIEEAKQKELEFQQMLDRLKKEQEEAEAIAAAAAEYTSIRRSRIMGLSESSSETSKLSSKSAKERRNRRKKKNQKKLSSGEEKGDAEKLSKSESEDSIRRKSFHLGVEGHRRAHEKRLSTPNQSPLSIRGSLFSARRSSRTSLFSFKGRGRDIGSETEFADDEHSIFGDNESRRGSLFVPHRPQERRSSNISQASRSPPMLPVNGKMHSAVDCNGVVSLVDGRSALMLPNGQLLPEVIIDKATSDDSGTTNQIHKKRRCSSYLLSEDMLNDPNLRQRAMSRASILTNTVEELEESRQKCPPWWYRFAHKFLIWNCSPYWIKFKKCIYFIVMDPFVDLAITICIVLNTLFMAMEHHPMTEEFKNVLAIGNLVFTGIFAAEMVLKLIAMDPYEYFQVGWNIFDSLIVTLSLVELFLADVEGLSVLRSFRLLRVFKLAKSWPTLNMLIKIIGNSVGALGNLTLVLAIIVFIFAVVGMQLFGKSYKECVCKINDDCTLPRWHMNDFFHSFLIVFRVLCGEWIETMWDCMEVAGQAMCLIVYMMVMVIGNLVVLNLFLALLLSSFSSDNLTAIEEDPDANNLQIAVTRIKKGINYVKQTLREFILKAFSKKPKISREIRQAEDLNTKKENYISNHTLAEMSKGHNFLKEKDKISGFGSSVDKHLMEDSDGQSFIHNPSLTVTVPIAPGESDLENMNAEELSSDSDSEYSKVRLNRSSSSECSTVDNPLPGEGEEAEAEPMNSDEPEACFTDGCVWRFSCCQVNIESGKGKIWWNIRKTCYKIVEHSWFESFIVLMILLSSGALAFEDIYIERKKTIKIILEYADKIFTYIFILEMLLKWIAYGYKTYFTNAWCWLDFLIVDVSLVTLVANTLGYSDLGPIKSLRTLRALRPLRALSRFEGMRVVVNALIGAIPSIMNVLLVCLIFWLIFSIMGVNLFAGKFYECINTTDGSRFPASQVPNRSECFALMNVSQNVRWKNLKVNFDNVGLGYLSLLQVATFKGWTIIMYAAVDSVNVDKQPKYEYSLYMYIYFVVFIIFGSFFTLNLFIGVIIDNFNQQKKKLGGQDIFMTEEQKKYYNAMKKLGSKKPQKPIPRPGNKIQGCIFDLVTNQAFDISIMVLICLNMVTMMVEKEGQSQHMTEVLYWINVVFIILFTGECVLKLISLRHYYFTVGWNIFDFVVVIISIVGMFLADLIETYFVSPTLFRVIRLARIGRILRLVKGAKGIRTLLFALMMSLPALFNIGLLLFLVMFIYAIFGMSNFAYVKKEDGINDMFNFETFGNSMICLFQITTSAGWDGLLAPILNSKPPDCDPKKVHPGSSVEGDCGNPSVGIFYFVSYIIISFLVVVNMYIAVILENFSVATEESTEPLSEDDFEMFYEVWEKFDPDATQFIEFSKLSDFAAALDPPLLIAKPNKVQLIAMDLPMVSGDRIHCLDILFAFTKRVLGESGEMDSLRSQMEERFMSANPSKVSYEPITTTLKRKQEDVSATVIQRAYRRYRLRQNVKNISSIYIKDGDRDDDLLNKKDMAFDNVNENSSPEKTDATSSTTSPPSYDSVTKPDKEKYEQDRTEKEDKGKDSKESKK
Sequence of hNav1.3 (Q9NY46 whole entry, looked up): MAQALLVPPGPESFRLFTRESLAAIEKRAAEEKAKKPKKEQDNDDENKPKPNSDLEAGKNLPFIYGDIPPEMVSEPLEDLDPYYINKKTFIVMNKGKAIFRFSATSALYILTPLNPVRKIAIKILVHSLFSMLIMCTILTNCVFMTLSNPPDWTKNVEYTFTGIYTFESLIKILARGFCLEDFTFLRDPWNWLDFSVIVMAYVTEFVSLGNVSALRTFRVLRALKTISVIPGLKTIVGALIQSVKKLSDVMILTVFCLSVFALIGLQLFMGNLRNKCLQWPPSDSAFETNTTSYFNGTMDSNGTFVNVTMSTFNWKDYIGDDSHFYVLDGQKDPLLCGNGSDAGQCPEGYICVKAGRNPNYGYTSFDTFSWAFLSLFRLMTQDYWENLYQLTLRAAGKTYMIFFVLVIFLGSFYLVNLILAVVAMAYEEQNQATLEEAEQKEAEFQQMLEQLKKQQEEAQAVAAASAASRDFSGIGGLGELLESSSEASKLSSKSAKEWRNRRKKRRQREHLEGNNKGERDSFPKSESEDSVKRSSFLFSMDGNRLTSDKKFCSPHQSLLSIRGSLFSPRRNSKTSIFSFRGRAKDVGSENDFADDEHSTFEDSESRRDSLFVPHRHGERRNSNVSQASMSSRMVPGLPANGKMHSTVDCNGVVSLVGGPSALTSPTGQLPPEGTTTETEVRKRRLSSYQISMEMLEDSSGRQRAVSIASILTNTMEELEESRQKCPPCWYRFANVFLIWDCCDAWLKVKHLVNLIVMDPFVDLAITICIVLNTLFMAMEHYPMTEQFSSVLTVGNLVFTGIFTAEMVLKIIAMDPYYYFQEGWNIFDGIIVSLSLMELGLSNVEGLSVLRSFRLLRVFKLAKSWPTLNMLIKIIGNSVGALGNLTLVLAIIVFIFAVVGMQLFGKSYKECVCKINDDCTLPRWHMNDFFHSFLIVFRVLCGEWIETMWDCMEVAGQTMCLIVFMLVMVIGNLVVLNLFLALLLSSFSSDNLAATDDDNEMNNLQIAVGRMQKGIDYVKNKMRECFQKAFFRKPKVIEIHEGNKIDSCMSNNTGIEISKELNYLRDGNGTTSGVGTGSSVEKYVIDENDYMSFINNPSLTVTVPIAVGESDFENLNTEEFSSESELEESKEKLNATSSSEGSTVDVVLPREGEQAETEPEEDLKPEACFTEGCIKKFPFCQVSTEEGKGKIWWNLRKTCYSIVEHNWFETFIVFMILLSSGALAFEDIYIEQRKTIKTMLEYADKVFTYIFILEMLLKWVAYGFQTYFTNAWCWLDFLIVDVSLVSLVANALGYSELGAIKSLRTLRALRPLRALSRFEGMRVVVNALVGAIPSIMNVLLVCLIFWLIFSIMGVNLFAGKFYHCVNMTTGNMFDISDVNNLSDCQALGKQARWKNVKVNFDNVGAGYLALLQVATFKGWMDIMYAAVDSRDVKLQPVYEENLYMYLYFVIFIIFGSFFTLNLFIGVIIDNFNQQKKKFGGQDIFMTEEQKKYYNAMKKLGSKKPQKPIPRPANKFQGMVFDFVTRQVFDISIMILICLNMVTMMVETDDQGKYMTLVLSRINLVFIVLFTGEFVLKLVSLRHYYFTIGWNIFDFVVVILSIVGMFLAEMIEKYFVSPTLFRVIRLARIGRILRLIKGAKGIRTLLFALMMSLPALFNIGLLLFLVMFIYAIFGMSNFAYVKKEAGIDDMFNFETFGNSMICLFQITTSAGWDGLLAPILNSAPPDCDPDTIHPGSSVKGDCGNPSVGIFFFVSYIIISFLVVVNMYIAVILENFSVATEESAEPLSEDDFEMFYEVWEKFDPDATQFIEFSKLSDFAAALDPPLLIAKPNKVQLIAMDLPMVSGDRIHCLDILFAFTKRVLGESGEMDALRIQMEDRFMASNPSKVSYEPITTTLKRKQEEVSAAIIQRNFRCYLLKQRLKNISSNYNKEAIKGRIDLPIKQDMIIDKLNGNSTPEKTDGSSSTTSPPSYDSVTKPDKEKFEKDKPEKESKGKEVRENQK

Row | SMILES | IC50 (hNav1.3) [µM] | IC50 (hNav1.7) [µM] | IC50 (hNav1.5) [µM]
1 | CC[C@H](C)[C@@H]1NC(=O)[C@@H]2CSSC[C@@H]3NC(=O)[C@H](C(C)C)NC(=O)[C@H](CC(C)C)NC(=O)[C@H](CC(N)=O)NC(=O)[C@@H]4CCCN4C(=O)[C@H](CCCNC(=N)N)NC(=O)[C@H](CSSC[C@H](NC(=O)[C@@H](N)CC(=O)O)C(=O)N[C@@H](CC(C)C)C(=O)NCC(=O)N[C@@H](C)C(=O)N[C@@H](CCSC)C(=O)N[C@@H](CCCNC(=N)N)C(=O)N[C@@H](CCCCN)C(=O)N2)NC(=O)[C@H](CSSC[C@@H](C(=O)N[C@@H](CCCCN)C(=O)N[C@@H](Cc2ccc(O)cc2)C(=O)N[C@@H](Cc2cccc4ccccc24)C(=O)N[C@@H](Cc2ccccc2)C(N)=O)NC(=O)[C@H](Cc2c[nH]c4ccccc24)NC(=O)[C@H](CCCNC(=N)N)NC(=O)[C@H](Cc2c[nH]cn2)NC(=O)[C@H]([C@@H](C)O)NC(=O)[C@H](CCCNC(=N)N)NC(=O)[C@H](CO)NC3=O)NC(=O)[C@H](CCCCN)NC(=O)[C@H](CC(=O)O)NC(=O)[C@H](CC(N)=O)NC(=O)[C@H](CC(=O)O)NC(=O)[C@@H]2CCCN2C1=O [compound 420] (H-DCLGAMRKCIPDNDKCCRPNLVCSRTHRWCKY[1Nal]F-NH2; disulfide 2-17, 9-23, 16-30) | 0.32 | 0.2 | 7.5
2 | CC[C@H](C)[C@@H]1NC(=O)[C@@H]2CSSC[C@@H]3NC(=O)[C@H](C(C)C)NC(=O)[C@H](CC(C)C)NC(=O)[C@H](Cc4c[nH]c5ccccc45)NC(=O)[C@@H]4CCCN4C(=O)[C@H](CCCNC(=N)N)NC(=O)[C@H](CSSC[C@H](NC(=O)[C@@H](N)CC(=O)O)C(=O)N[C@@H](CC(C)C)C(=O)NCC(=O)N[C@@H](C)C(=O)N[C@@H](CCSC)C(=O)N[C@@H](CCCNC(=N)N)C(=O)N[C@@H](CCCCN)C(=O)N2)NC(=O)[C@H](CSSC[C@@H](C(=O)N[C@@H](CCCCN)C(=O)N[C@@H](Cc2ccc(O)cc2)C(=O)N[C@H](C(=O)N[C@@H](Cc2ccccc2)C(N)=O)C(C)C)NC(=O)[C@H](Cc2c[nH]c4ccccc24)NC(=O)[C@H](CCCCN)NC(=O)[C@H](Cc2c[nH]cn2)NC(=O)[C@H]([C@@H](C)O)NC(=O)[C@H](CCCNC(=N)N)NC(=O)[C@H](CO)NC3=O)NC(=O)[C@H](CCCCN)NC(=O)[C@H](CC(=O)O)NC(=O)[C@H](CC(N)=O)NC(=O)[C@H](CC(=O)O)NC(=O)[C@@H]2CCCN2C1=O [compound 422] (H-DCLGAMRKCIPDNDKCCRPWLVCSRTHKWCKYVF-NH2; disulfide 2-17, 9-23, 16-30) | 0.39 | 0.28 | > 5
3 | CC[C@H](C)[C@@H]1NC(=O)[C@@H]2CSSC[C@@H]3NC(=O)[C@H](C(C)C)NC(=O)[C@H](CC(C)C)NC(=O)[C@H](CC(N)=O)NC(=O)[C@@H]4CCCN4C(=O)[C@H](CCCNC(=N)N)NC(=O)[C@H](CSSC[C@H](NC(=O)[C@@H](N)CC(=O)O)C(=O)N[C@@H](CC(C)C)C(=O)NCC(=O)N[C@@H](C)C(=O)N[C@@H](CCSC)C(=O)N[C@@H](CCCNC(=N)N)C(=O)N[C@@H](CCCCN)C(=O)N2)NC(=O)[C@H](CSSC[C@@H](C(=O)N[C@@H](CCCCN)C(=O)N[C@@H](Cc2ccc(O)cc2)C(=O)N[C@H](C(=O)N[C@@H](Cc2ccccc2)C(N)=O)C(C)C)NC(=O)[C@H](Cc2c[nH]c4ccccc24)NC(=O)[C@H](CCCCN)NC(=O)[C@H](Cc2c[nH]cn2)NC(=O)[C@H]([C@@H](C)O)NC(=O)[C@H](CCCNC(=N)N)NC(=O)[C@H](CO)NC3=O)NC(=O)[C@H](CCCCN)NC(=O)[C@H](CC(=O)O)NC(=O)[C@H](CC(N)=O)NC(=O)[C@H](Cc2c[nH]c3ccccc23)NC(=O)[C@@H]2CCCN2C1=O [compound 423] (H-DCLGAMRKCIPWNDKCCRPNLVCSRTHKWCKYVF-NH2; disulfide 2-17, 9-23, 16-30) | 1.09 | 0.43 | > 5
4 | CC[C@H](C)[C@@H]1NC(=O)[C@@H]2CSSC[C@@H]3NC(=O)[C@H](C(C)C)NC(=O)[C@H](CC(C)C)NC(=O)[C@H](CC(N)=O)NC(=O)[C@@H]4CCCN4C(=O)[C@H](CCCNC(=N)N)NC(=O)[C@H](CSSC[C@H](NC(=O)[C@@H](N)CC(=O)O)C(=O)N[C@@H](CC(C)C)C(=O)N[C@@H](Cc4c[nH]c5ccccc45)C(=O)N[C@@H](C)C(=O)N[C@@H](CCSC)C(=O)N[C@@H](CCCNC(=N)N)C(=O)N[C@@H](CCCCN)C(=O)N2)NC(=O)[C@H](CSSC[C@@H](C(=O)N[C@@H](CCCCN)C(=O)N[C@@H](Cc2ccc(O)cc2)C(=O)N[C@H](C(=O)N[C@@H](Cc2ccccc2)C(N)=O)C(C)C)NC(=O)[C@H](Cc2c[nH]c4ccccc24)NC(=O)[C@H](CCCCN)NC(=O)[C@H](Cc2c[nH]cn2)NC(=O)[C@H]([C@@H](C)O)NC(=O)[C@H](CCCNC(=N)N)NC(=O)[C@H](CO)NC3=O)NC(=O)[C@H](CCCCN)NC(=O)[C@H](CC(=O)O)NC(=O)[C@H](CC(N)=O)NC(=O)[C@H](CC(=O)O)NC(=O)[C@@H]2CCCN2C1=O [compound 424] (H-DCLWAMRKCIPDNDKCCRPNLVCSRTHKWCKYVF-NH2; disulfide 2-17, 9-23, 16-30) | 1.17 | 0.49 | > 5
5 | CC[C@H](C)[C@@H]1NC(=O)[C@@H]2CSSC[C@@H]3NC(=O)[C@H](C(C)C)NC(=O)[C@H](CC(C)C)NC(=O)[C@H](CC(N)=O)NC(=O)[C@@H]4CCCN4C(=O)[C@H](CCCNC(=N)N)NC(=O)[C@H](CSSC[C@H](NC(=O)[C@@H](N)CC(=O)O)C(=O)N[C@@H](CC(C)C)C(=O)NCC(=O)N[C@@H](C)C(=O)N[C@@H](CCSC)C(=O)N[C@@H](CCCNC(=N)N)C(=O)N[C@@H](CCCCN)C(=O)N2)NC(=O)[C@H](CSSC[C@@H](C(=O)N[C@@H](CCCCN)C(=O)N[C@@H](Cc2ccc(O)cc2)C(=O)N[C@@H](C)C(=O)N[C@@H](Cc2ccccc2)C(N)=O)NC(=O)[C@H](Cc2c[nH]c4ccccc24)NC(=O)[C@H](CCCCN)NC(=O)[C@H](Cc2c[nH]cn2)NC(=O)[C@H]([C@@H](C)O)NC(=O)[C@H](CCCNC(=N)N)NC(=O)[C@H](CO)NC3=O)NC(=O)[C@H](CCCCN)NC(=O)[C@H](CC(=O)O)NC(=O)[C@H](CC(N)=O)NC(=O)[C@H](CC(=O)O)NC(=O)[C@@H]2CCCN2C1=O [compound 426] (H-DCLGAMRKCIPDNDKCCRPNLVCSRTHKWCKYAF-NH2; disulfide 2-17, 9-23, 16-30) | 1.58 | 0.58 | > 5
6 | CC[C@H](C)[C@@H]1NC(=O)[C@@H]2CSSC[C@@H]3NC(=O)[C@H](C(C)C)NC(=O)[C@H](CC(C)C)NC(=O)[C@H](CC(N)=O)NC(=O)[C@@H]4CCCN4C(=O)[C@H](CCCNC(=N)N)NC(=O)[C@H](CSSC[C@H](NC(=O)[C@@H](N)CC(=O)O)C(=O)N[C@@H](CC(C)C)C(=O)NCC(=O)N[C@@H](C)C(=O)N[C@@H](CCSC)C(=O)N[C@@H](CCCNC(=N)N)C(=O)N[C@@H](CCCCN)C(=O)N2)NC(=O)[C@H](CSSC[C@@H](C(=O)N[C@@H](CCCCN)C(=O)N[C@@H](Cc2ccc(O)cc2)C(=O)N[C@H](C(=O)N[C@@H](Cc2ccccc2)C(N)=O)C(C)C)NC(=O)[C@H](Cc2c[nH]c4ccccc24)NC(=O)[C@H](CCCCN)NC(=O)[C@H](Cc2c[nH]cn2)NC(=O)[C@H]([C@@H](C)O)NC(=O)[C@H](CCCNC(=N)N)NC(=O)[C@H](CO)NC3=O)NC(=O)[C@H](CCCCN)NC(=O)[C@H](CC(=O)O)NC(=O)[C@H](Cc2cccc3ccccc23)NC(=O)[C@H](CC(=O)O)NC(=O)[C@@H]2CCCN2C1=O [compound 427] (H-DCLGAMRKCIPD[1Nal]DKCCRPNLVCSRTHKWCKYVF-NH2; disulfide 2-17, 9-23, 16-30) | 1.18 | 0.65 | > 5
7 | CC[C@H](C)[C@@H]1NC(=O)[C@@H]2CSSC[C@@H]3NC(=O)[C@H](C(C)C)NC(=O)[C@H](CC(C)C)NC(=O)[C@H](CC(N)=O)NC(=O)[C@@H]4CCCN4C(=O)[C@H](CCCNC(=N)N)NC(=O)[C@H](CSSC[C@H](NC(=O)[C@@H](N)CC(=O)O)C(=O)N[C@@H](CC(C)C)C(=O)NCC(=O)N[C@@H](C)C(=O)N[C@@H](CCSC)C(=O)N[C@@H](CCCNC(=N)N)C(=O)N[C@@H](CCCCN)C(=O)N2)NC(=O)[C@H](CSSC[C@@H](C(=O)N[C@@H](CCCCN)C(=O)N[C@@H](Cc2ccc(O)cc2)C(=O)N[C@H](C(=O)N[C@@H](Cc2ccccc2)C(N)=O)C(C)C)NC(=O)[C@H](Cc2c[nH]c4ccccc24)NC(=O)[C@H](CCCCN)NC(=O)[C@H](Cc2c[nH]cn2)NC(=O)[C@H]([C@@H](C)O)NC(=O)[C@H](CCCNC(=N)N)NC(=O)[C@H](CO)NC3=O)NC(=O)[C@H](CCCCN)NC(=O)[C@H](CC(=O)O)NC(=O)[C@H](Cc2c[nH]c3ccccc23)NC(=O)[C@H](CC(=O)O)NC(=O)[C@@H]2CCCN2C1=O [compound 428] (H-DCLGAMRKCIPDWDKCCRPNLVCSRTHKWCKYVF-NH2; disulfide 2-17, 9-23, 16-30) | 1.1 | 0.67 | > 5
8 | CC[C@H](C)[C@@H]1NC(=O)[C@@H]2CSSC[C@@H]3NC(=O)[C@H](C(C)C)NC(=O)[C@H](CC(C)C)NC(=O)[C@H](CC(N)=O)NC(=O)[C@@H]4CCCN4C(=O)[C@H](CCCNC(=N)N)NC(=O)[C@H](CSSC[C@H](NC(=O)[C@@H](N)CC(=O)O)C(=O)N[C@@H](CC(C)C)C(=O)N[C@@H](CCC(=O)O)C(=O)N[C@@H](C)C(=O)N[C@@H](CCSC)C(=O)N[C@@H](CCCNC(=N)N)C(=O)N[C@@H](CCCCN)C(=O)N2)NC(=O)[C@H](CSSC[C@@H](C(=O)N[C@@H](CCCCN)C(=O)N[C@@H](Cc2ccc(O)cc2)C(=O)N[C@H](C(=O)N[C@@H](Cc2ccccc2)C(N)=O)C(C)C)NC(=O)[C@H](Cc2c[nH]c4ccccc24)NC(=O)[C@H](CCCCN)NC(=O)[C@H](Cc2c[nH]cn2)NC(=O)[C@H]([C@@H](C)O)NC(=O)[C@H](CCCNC(=N)N)NC(=O)[C@H](CO)NC3=O)NC(=O)[C@H](CCCCN)NC(=O)[C@H](CC(=O)O)NC(=O)[C@H](CC(N)=O)NC(=O)[C@H](CC(=O)O)NC(=O)[C@@H]2CCCN2C1=O [compound 429] (H-DCLEAMRKCIPDNDKCCRPNLVCSRTHKWCKYVF-NH2; disulfide 2-17, 9-23, 16-30) | 3.99 | 4.64 | > 5
